Here are results for four molecules from PMC12135066, “Design and Preclinical Evaluation of Novel uPAR-Targeting Radiopeptides Modified with an Albumin-Binding Entity” (Molecular Pharmaceutics, 2025).

This data set concerns HEK-uPAR xenograft-bearing nude mice. Put plainly: Biodistribution studies in HEK-uPAR xenograft-bearing nude mice. The following applies: average ± SD, n=3 animals.

Protocol: All applicable international, national, and/or institutional guidelines for the care and use of laboratory animals were followed, and the herein reported experiments were carried out according to the guidelines of the Swiss Regulations for Animal Welfare. The preclinical studies were ethically approved by the Cantonal Committee of Animal Experimentation and permitted by the responsible cantonal authorities (License No. 75721). Five-week-old female CD1/nude (Crl:CD1-Foxn ^ nu ) and female immunocompetent FVB (FVB/NCrl) mice were obtained from Charles River Laboratories (Sulzfeld, Germany). All mice were acclimatized for at least 7 days, receiving standard rodent chow ad libitum before being included in the reported studies. The CD1/nude mice were subcutaneously inoculated with HEK-uPAR cells (7 × 10^6 cells in 100 μL PBS) on the right shoulder. […] Typically, it took 3–11 weeks to reach xenograft volumes of 40–600 mm^3 at the time of testing the tissue distribution of the radiopeptides. The immunocompetent FVB mice were used for testing the in vivo stability of the radiopeptides.
The mice were injected with the radiopeptides (5 MBq, 0.5 nmol, 100 μL) in saline containing 0.05% BSA and sacrificed at 4 and 24 h after injection of the radiopeptides. Selected tissues and organs were collected, weighed, and measured with the γ-counter (1480 Wizard, PerkinElmer). […] A p-value of <0.05 was considered a statistically significant difference (GraphPad Prism software, version 8.3.1).
Decay-corrected data is shown as average ± SD of n = 3 animals of % injected activity per gram (IA/g) tissue.

For the molecule `CC(C)C[C@H](NC(=O)[C@H](Cc1ccc(O)cc1)NC(=O)[C@@H](CCCNC(=N)N)NC(=O)[C@@H](CO)NC(=O)[C@H](Cc1ccccc1)NC(=O)[C@H](CC1CCCCC1)NC(=O)[C@H](CC(=O)O)NC(=O)[C@H](CCCCNC(=O)CCCc1ccc(I)cc1)NC(=O)[C@@H](N)CCCCNC(=O)CN1CCN(CC(=O)O)CCN(CC(=O)O)CCN(CC(=O)O)CC1)C(=O)N[C@@H](Cc1c[nH]c2ccccc12)C(=O)N[C@@H](CO)C(N)=O` [[^177Lu]Lu-uPAR-04, metal not drawn], where the note is “4 h p.i.”, the Xenograft-to-blood ratio is listed as 0.28 ± 0.01, the Xenograft-to-kidney ratio was 0.62 ± 0.01 and the Xenograft-to-liver ratio was 0.93 ± 0.08. Further, under “24 h p.i.”, the Xenograft-to-blood ratio was 0.61 ± 0.09, the Xenograft-to-kidney ratio was 0.73 ± 0.15 and the Xenograft-to-liver ratio is on record as 1.4 ± 0.2.
Regarding `CC(C)C[C@H](NC(=O)[C@H](Cc1ccc(O)cc1)NC(=O)[C@@H](CCCNC(=N)N)NC(=O)[C@@H](CO)NC(=O)[C@H](Cc1ccccc1)NC(=O)[C@H](CC1CCCCC1)NC(=O)[C@H](CC(=O)O)NC(=O)[C@H](CCCCNC(=O)CCCc1ccc(I)cc1)NC(=O)CN1CCN(CC(=O)O)CCN(CC(=O)O)CCN(CC(=O)O)CC1)C(=O)N[C@@H](Cc1c[nH]c2ccccc12)C(=O)N[C@@H](CO)C(N)=O` [[^177Lu]Lu-uPAR-01, metal not drawn], for the setting “4 h p.i.”, the Xenograft-to-blood ratio worked out at 0.57 ± 0.01, the Xenograft-to-kidney ratio is 1.6 ± 0.1 and the Xenograft-to-liver ratio is given as 1.4 ± 0.1. Besides, where the note is “24 h p.i.”, the Xenograft-to-blood ratio is given as 1.3 ± 0.1, the Xenograft-to-kidney ratio is listed as 1.4 ± 0.3 and the Xenograft-to-liver ratio is on record as 3.3 ± 0.3.
Regarding `CC(C)C[C@H](NC(=O)[C@H](Cc1ccc(O)cc1)NC(=O)[C@@H](CCCNC(=N)N)NC(=O)[C@@H](CO)NC(=O)[C@H](Cc1ccccc1)NC(=O)[C@H](CC1CCCCC1)NC(=O)[C@H](CC(=O)O)NC(=O)CCOCCOCCOCCOCCNC(=O)[C@H](CCCCNC(=O)CCCc1ccc(I)cc1)NC(=O)CN1CCN(CC(=O)O)CCN(CC(=O)O)CCN(CC(=O)O)CC1)C(=O)N[C@@H](Cc1c[nH]c2ccccc12)C(=O)N[C@@H](CO)C(N)=O` [[^177Lu]Lu-uPAR-05, metal not drawn], under “4 h p.i.”, the Xenograft-to-blood ratio was found to be 0.42 ± 0.07, the Xenograft-to-kidney ratio was found to be 1.4 ± 0.2 and the Xenograft-to-liver ratio stood at 0.98 ± 0.10. Under “24 h p.i.”, the Xenograft-to-blood ratio turned out to be 0.66 ± 0.12, the Xenograft-to-kidney ratio is 1.9 ± 0.3 and the Xenograft-to-liver ratio is reported as 2.9 ± 0.3.
Molecule `CC(C)C[C@H](NC(=O)[C@H](Cc1ccc(O)cc1)NC(=O)[C@@H](CCCNC(=N)N)NC(=O)[C@@H](CO)NC(=O)[C@H](Cc1ccccc1)NC(=O)[C@H](CC1CCCCC1)NC(=O)[C@H](CC(=O)O)NC(=O)CN1CCN(CC(=O)O)CCN(CC(=O)O)CCN(CC(=O)O)CC1)C(=O)N[C@@H](Cc1c[nH]c2ccccc12)C(=O)N[C@@H](CO)C(N)=O` [[^177Lu]Lu-DOTA-AE105, metal not drawn, reference compound] returned an HEK-uPAR xgft (4 h p.i., 5 MBq, 0.5 nmol, decay-corrected) of 0.87 ± 0.05 % IA/g. Moreover, where the note is “4 h p.i.”, the Xenograft-to-blood ratio amounted to 11 ± 1, the Xenograft-to-kidney ratio was determined as 0.58 ± 0.03 and the Xenograft-to-liver ratio is listed as 8.6 ± 0.4. Also, where the note is “24 h p.i.”, the Xenograft-to-blood ratio came out at 32 ± 13, the Xenograft-to-kidney ratio was determined as 0.33 ± 0.14 and the Xenograft-to-liver ratio came to 2.4 ± 0.9.
